{
  "source": "patent US20090048243A1",
  "about": "“THERAPEUTIC AGENT FOR ATTENTION-DEFICIT HYPERACTIVITY DISORDER” (MITSUBISHI PHARMA CORPORATION, priority 2005, published 2009)",
  "key": {"[1]": {"tested_on": "norepinephrine uptake into mouse cerebral synaptosome", "experiment": "Norepinephrine uptake inhibitory action in crude synaptosome fraction", "assay_type": "biochemical", "details": "male ddy mouse hyppocampus synaptosome; tritiated norepinephrine; 37° C., 10 minutes; read-out: 50% inhibitory concentration (IC50) for norepinephrine uptake into mouse cerebral synaptosome", "protocol": "Using a publicly known method (Journal of Pharmacology and Experimental Therapeutics, Vol.165, p.78, 1969) with partial modification, norepinephrine uptake inhibitory action was measured.\nA crude synaptosome fraction was separated from the hyppocampus of a male ddy mouse, suspended in Krebs-Henseleit buffer solution (pH 7.4), and used in the experiments. Next, each test compound at several different concentrations was added to the synaptosome suspension and pre-incubated for 5 minutes, after which tritiated norepinephrine (Japan Radioisotope) was added to the reaction liquor, and they were reacted at 37° C. for 10 minutes. After the reaction, the reaction liquor was suction-filtered through a Whatman GF/B filter (NeuroScience, Inc.), and the filter was washed with Krebs-Henseleit buffer solution (pH 7.4), after which radioactivity remaining in the filter was measured using a liquid scintillation counter (Packard company, 3380 model). Norepinephrine concentration dependent uptake was obtained by subtracting the uptake at 0° C. from the uptake at 37° C. 50% inhibitory concentrations were graphically calculated, and inhibition constants (Ki values) were determined."}, "[2]": {"biological_target": "T1, 5-HT2A receptor (Rattus norvegicus, UniProt P14842)", "T1 construct": "A crude synaptosome fraction was separated from the cerebral cortex of Wistar rats; from tissue; host or cells: Wistar rat cerebral cortex, crude synaptosome fraction", "T1 sequence (P14842 whole entry)": "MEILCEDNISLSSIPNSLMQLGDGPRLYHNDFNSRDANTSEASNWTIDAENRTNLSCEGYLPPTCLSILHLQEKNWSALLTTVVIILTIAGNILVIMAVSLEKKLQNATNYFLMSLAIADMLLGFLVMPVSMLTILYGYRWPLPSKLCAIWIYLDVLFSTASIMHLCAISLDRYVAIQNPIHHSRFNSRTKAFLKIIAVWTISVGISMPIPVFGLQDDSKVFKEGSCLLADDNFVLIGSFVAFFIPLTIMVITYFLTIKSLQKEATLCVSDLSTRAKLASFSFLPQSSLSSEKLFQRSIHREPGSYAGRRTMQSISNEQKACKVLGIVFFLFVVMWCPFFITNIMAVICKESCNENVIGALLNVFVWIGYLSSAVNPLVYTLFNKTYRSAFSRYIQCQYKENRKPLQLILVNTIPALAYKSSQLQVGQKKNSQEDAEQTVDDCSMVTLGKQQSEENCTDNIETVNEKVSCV", "experiment": "Specific 5-HT2A receptor binding test (tritiated ketanserin, cerebral cortex crude synaptosome fraction)", "details": "Wistar rat cerebral cortex synaptosome; tritiated ketanserin 0.2 nmol/L; 37° C., 20 minutes", "protocol": "A specific 5-HT2A receptor binding test was performed in accordance with a publicly known method (Molecular Pharmacology, Vol.21, p.301, 1981).\nA crude synaptosome fraction was separated from the cerebral cortex of Wistar rats at 6 to 12 weeks of age (SEAC Yoshitomi), suspended in 50 mmol/L tris-HCl buffer solution (pH 7.7) (Nacalai Tesque, Inc.), and used in the experiments. Next, each test compound at several different concentrations and tritiated ketanserin (final concentration 0.2 nmol/L) (Japan Radioisotope) were added to the synaptosome suspension, and they were reacted at 37° C. for 20 minutes. After the reaction, the reaction liquor was suction-filtered through a Whatman GF/B filter (NeuroScience, Inc.), and the filter was washed with 50 mmol/L tris-HCl buffer solution (pH 7.7), after which radioactivity remaining in the filter was measured using a liquid scintillation counter (Aloka Co., Ltd.). Non-specific binding was determined in the presence of 10^−5 mmol/L mianserin (Sigma Ltd.). 50% inhibitory concentrations were graphically calculated, and inhibition constants (Ki values) were determined."}, "[3]": {"tested_on": "rats with juvenile dopamine neulolysis due to 6-OH-DA treatment", "experiment": "Suppressive effect on increased motor activity in rats with juvenile dopamine neulolysis due to 6-OH-DA treatment", "assay_type": "in vivo, rat", "details": "for ED50: Rattus norvegicus, read-out: ED50 for the suppression of increased motor activity due to the 6-OH-DA treatment as 100%; for Effect on increased motor activity due to the 6-OH-DA treatment: compound A 1, 3 or 10 mg/kg, Atomoxetine 1, 3, 10 or 30 mg/kg, vs 0.5% HPMC control", "protocol": "Suppressive effect on increased motor activity in rats with juvenile dopamine neulolysis due to 6-OH-DA treatment Male SD rats (Charles River Japan) were pre-treated with desipramine (Sigma Ltd.) in accordance with the method of Zhang et al. (Neuropsychopharmacology 2001 November;25(5):624-32) on day 5 after birth, after which 6-hydroxydopamine (hereinafter referred to as 6-OH-DA) (Sigma Ltd.) was administered to the cerebral ventricle on one side. During 12 to 18 days after birth, acclimation to a motor activity measurement apparatus (Toyo Sangyo) was performed three times; on day 19 after birth, motor activity was measured and the animals were grouped. […] For control, 0.5% HPMC (hydroxypropylmethylcellulose) was orally administered."}, "[4]": {"tested_on": "normal rats", "experiment": "Effect on motor activity in normal rats", "assay_type": "in vivo, rat", "details": "oral (FIG. 1-B)"}},
  "note": "Where a name gives a salt, the structure may show the parent alone. Read-outs that look alike come from different tables or passages of the source.",
  "data": [
    {"smiles": "c1csc(Cc2ccccc2OCC2CNCCO2)c1", "note": "(racemic) [teniloxazine, (±)-2-[[o-(2-thenyl)phenoxy]methyl]morpholine maleic acid salt, reference compound]", "values": [
      {"measurement": "IC50", "setting": "[1]", "result": 12, "unit": "nM"},
      {"measurement": "Ki", "setting": "[2]", "result": 49, "unit": "nM"}
    ]},
    {"smiles": "CNCCC(Oc1ccccc1C)c1ccccc1.Cl", "note": "(single isomer, unassigned; (-)) [Atomoxetine, (−)-N-methyl-3-((2-methylphenyl)oxy)-3-phenyl-1-aminopropane hydrochloride, reference compound]", "values": [
      {"measurement": "ED50", "setting": "[3]; po", "result": 24, "unit": "mg/kg"},
      {"measurement": "Effect on increased motor activity due to the 6-OH-DA treatment", "setting": "[3]; oral", "result": "dose-dependently suppressed, but no significant suppression was observed"}
    ]},
    {"smiles": "c1csc(Cc2ccccc2OC[C@H]2CNCCO2)c1", "note": "[B, R-2-[[o-(2-thenyl)phenoxy]methyl]morpholine maleic acid salt]", "values": [
      {"measurement": "IC50", "setting": "[1]", "result": 33, "unit": "nM"},
      {"measurement": "Ki", "setting": "[2]", "result": 1000, "unit": "nM"}
    ]},
    {"smiles": "c1csc(Cc2ccccc2OC[C@@H]2CNCCO2)c1", "note": "[compound A, S-2-[[o-(2-thenyl)phenoxy]methyl]morpholine maleic acid salt]", "values": [
      {"measurement": "IC50", "setting": "[1]", "result": 2.6, "unit": "nM"},
      {"measurement": "ED50", "setting": "[3]; oral, motor activity during 30 minutes following 1 hour after administration, linear regression", "result": 1.7, "unit": "mg/kg"},
      {"measurement": "Dose from which a significant difference in suppression of increased motor activity was observed", "setting": "[3]; oral, P<0.01 versus control (Dunnett method)", "result": "≥ 3", "unit": "mg/kg"},
      {"measurement": "Effect on increased motor activity due to the 6-OH-DA treatment", "setting": "[3]; oral", "result": "dose-dependently inhibited"},
      {"measurement": "Ki", "setting": "[2]", "result": 26, "unit": "nM"},
      {"measurement": "Suppression of motor activity in normal rats", "setting": "[4]", "result": "no significant suppression of motor activity was observed"}
    ]}
  ]
}
